Assay results published in ChEMBL document CHEMBL1122434, “Antitumor amino-substituted pyrido[3',4':4,5]pyrrolo[2,3-g]isoquinolines and pyrido[4,3-b]carbazole derivatives: synthesis and evaluation of compounds resulting from new side chain and heterocycle modifications” (J Med Chem, 1983).
Numbered stars: 1 amine (or outer) side, 2 acyl side, 3 side chain; on linkers, the order of the positions; unused ones are H or OH. Bridge positions count the residues as written; N and C are the ends. Square brackets hold non-standard residues; d marks the D form. Peptide text beside a SMILES is read from it. I, II: the chains in the order shown. Actinocin(1to9) = Cc1c2oc3c(C)ccc(C(=O)[*:2])c3nc-2c(C(=O)[*:1])c(N)c1=O; NMeV = CN[C@H](C(=O)O)C(C)C; Sar = CNCC(=O)O

What was measured:
[1] = system: L1210; assay: Antitumor activity against L1210 leukemia cells measured as range of death at 15 mg/kg; value may range from 12 to 19; assay type: functional, Mus musculus
[2] = system: L1210; assay: Cytotoxicity against L1210 tumor cell line, activity is expressed as K (inverse value of drug concentration); assay type: functional, cell-based; details: Mus musculus
[3] = system: L1210; assay: In vitro cytotoxicity against L1210 cell line as concentration required for 50% inhibition of cell growth; assay type: functional; details: Mus musculus, read-out: ID50 (the source's name)
[4] = system: L1210; assay: Antitumor activity against L1210 leukemia cells measured as Median survival time at 15 mg/kg; assay type: functional, Mus musculus
[5] = Acute toxicity in mice (LD0) after i.p. administration (highest nontoxic dose); assay type: organism-based; details: mouse, in vivo, ip; read-out: LD0
[6] = system: Mus musculus; assay: Acute toxicity in mice (LD100) after i.p. administration; assay type: organism-based; details: in vivo, ip
[7] = system: L1210; assay: Antitumor activity against L1210 leukemia cells measured as range of death at 15 mg/kg; value may range from 7 to 44; details: Mus musculus
[8] = system: L1210; assay: Antitumor activity against L1210 leukemia cells measured as range of death at 20 mg/kg; value may range from 15 to 19; assay type: functional, Mus musculus
[9] = system: L1210; assay: Antitumor activity against L1210 leukemia cells measured as Median survival time at 20 mg/kg; assay type: functional, Mus musculus
[10] = system: L1210; assay: Antitumor activity against L1210 leukemia cells measured as range of death at 20 mg/kg; value may range from 14 to 25; assay type: functional, Mus musculus
[11] = system: L1210; assay: Antitumor activity against L1210 leukemia cells measured as range of death at 20 mg/kg; value may range from 9 to 12; assay type: functional, Mus musculus
[12] = system: L1210; assay: Antitumor activity against L1210 leukemia cells measured as Median survival time at 25 mg/kg; assay type: functional, Mus musculus
[13] = system: L1210; assay: Antitumor activity against L1210 leukemia cells measured as range of death at 25 mg/kg; value may range from 14 to 19; details: Mus musculus
[14] = system: L1210; assay: Antitumor activity against L1210 leukemia cells measured as range of death at 10 mg/kg; assay type: functional, Mus musculus
[15] = system: L1210; assay: Antitumor activity against L1210 leukemia cells measured as percent increase in life span (% ILS) at 10 mg/kg; assay type: functional; details: Mus musculus
[16] = system: L1210; assay: Antitumor activity against L1210 leukemia cells measured as Median survival time at 10 mg/kg; assay type: functional, Mus musculus
[17] = system: L1210; assay: Antitumor activity against L1210 leukemia cells measured as range of death at 10 mg/kg; value may range from 14 to 19; assay type: functional, Mus musculus
[18] = system: L1210; assay: Antitumor activity against L1210 leukemia cells measured as Median survival time at 3.75 mg/kg; assay type: functional, Mus musculus
[19] = system: L1210; assay: Antitumor activity against L1210 leukemia cells measured as range of death at 3.75 mg/kg; value may range from 15 to 21; assay type: functional, Mus musculus
[20] = system: L1210; assay: Antitumor activity against L1210 leukemia cells measured as range of death at 10 mg/kg; value may range from 8 to 20; assay type: functional, Mus musculus
[21] = system: L1210; assay: Antitumor activity against L1210 leukemia cells measured as range of death at 10 mg/kg; value may range from 16 to 42; assay type: functional, Mus musculus
[22] = system: L1210; assay: Antitumor activity against L1210 leukemia cells measured as range of death at 20 mg/kg; value may range from 14 to 17; assay type: functional, Mus musculus
[23] = system: L1210; assay: Antitumor activity against L1210 leukemia cells measured as range of death at 10 mg/kg; value may range from 16 to 20; details: Mus musculus
[24] = system: L1210; assay: Antitumor activity against L1210 leukemia cells measured as range of death at 10 mg/kg; value may range from 8 to 28; assay type: functional, Mus musculus
[25] = system: L1210; assay: Antitumor activity against L1210 leukemia cells measured as range of death at 2.5 mg/kg; value may range from 14 to 19; assay type: functional, Mus musculus
[26] = system: L1210; assay: Antitumor activity against L1210 leukemia cells measured as Median survival time at 2.5 mg/kg; assay type: functional, Mus musculus
[27] = system: L1210; assay: Antitumor activity against L1210 leukemia cells measured as range of death at 10 mg/kg; value may range from 12 to 25; assay type: functional, Mus musculus
[28] = system: L1210; assay: Antitumor activity against L1210 leukemia cells measured as range of death at 12 mg/kg; value may range from 12 to 14; assay type: functional, Mus musculus
[29] = system: L1210; assay: Antitumor activity against L1210 leukemia cells measured as Median survival time at 12 mg/kg; assay type: functional, Mus musculus
[30] = system: L1210; assay: Antitumor activity against L1210 leukemia cells measured as range of death at 12.5 mg/kg; value may range from 12 to 27; assay type: functional, Mus musculus
[31] = system: L1210; assay: Antitumor activity against L1210 leukemia cells measured as Median survival time at 12.5 mg/kg; assay type: functional, Mus musculus
[32] = system: L1210; assay: Antitumor activity against L1210 leukemia cells measured as range of death at 2.5 mg/kg; value may range from 12 to 19; assay type: functional, Mus musculus
[33] = system: L1210; assay: Antitumor activity against L1210 leukemia cells measured as range of death at 15 mg/kg; value may range from 19 to 35; assay type: functional, Mus musculus

| SMILES | K [2] | IC50 [3] | MTD [5] | LD100 [6] | ILS at 10 mg/kg [15] | MST [16] | further results |
| --- | --- | --- | --- | --- | --- | --- | --- |
| CCN(CC)CCCNc1nccc2c(C)c3[nH]c4ccc(OC)cc4c3cc12 | 0.2 µM⁻¹ | 5000 nM | 20 mg/kg | 40 mg/kg | – | – | Range of death [1]: 19 days; MST [4]: 14.3 days |
| Cc1c2ccnc(NCCCN(C)C)c2c(C)c2c1[nH]c1ccncc12 | 125 µM⁻¹ | 8 nM | 15 mg/kg | 20 mg/kg | – | – | MST [4]: 25.2 days; Range of death [7]: 44 days |
| CCN(CCCN)CCCNc1nccc2c(C)c3[nH]c4ccncc4c3cc12 | 5 µM⁻¹ | 200 nM | 20 mg/kg | 40 mg/kg | – | – | Range of death [8]: 19 days; MST [9]: 17 days |
| CCN(CC)CCCNc1nccc2c(C)c3[nH]c4ccncc4c3cc12 [PAZELLIPTINE] | 50 µM⁻¹ | 20 nM | 25 mg/kg | 30 mg/kg | – | – | Range of death [10]: 25 days; MST [9]: 20.5 days |
| CCN(CC)CCNc1nccc2c(C)c3c(cc12)c1cc(OC)ccc1n3C | 0.5 µM⁻¹ | 2000 nM | 20 mg/kg | 30 mg/kg | – | – | Range of death [11]: 12 days; MST [9]: 11 days |
| Cc1c2ccnc(NCCCN(CCO)CCO)c2cc2c3c[nH]ccc-3nc12 | 1.7 µM⁻¹ | 600 nM | 30 mg/kg | 100 mg/kg | – | – | MST [12]: 15.5 days; Range of death [13]: 19 days |
| COc1ccc2[nH]c3c(C)c4ccnc(NCCCN(CCCl)CCCl)c4cc3c2c1 | 5 µM⁻¹ | 200 nM | 15 mg/kg | 20 mg/kg | 26% | 13.6 days | Range of death [14]: 12 days |
| CCN(CC)CCCNc1nccc2c(C)c3c(c(C)c12)c1cc(O)ccc1n3C | 5 µM⁻¹ | 200 nM | 12 mg/kg | 25 mg/kg | 66.5% | 16.1 days | Range of death [17]: 19 days |
| COc1ccc2[nH]c3c(C)c4ccnc(NCCCN(CCO)CCO)c4c(C)c3c2c1 | 2.5 µM⁻¹ | 400 nM | 10 mg/kg | 15 mg/kg | – | – | MST [18]: 18.4 days; Range of death [19]: 21 days |
| Cc1c2c(NCCCN(C)C)nccc2c(C)c2c1c1cc(O)ccc1n2C | 33 µM⁻¹ | 30 nM | 10 mg/kg | 50 mg/kg | 68% | 16.3 days | Range of death [20]: 20 days |
| CCNCCCNc1nccc2c(C)c3[nH]c4ccncc4c3cc12 | 10 µM⁻¹ | 100 nM | 20 mg/kg | 30 mg/kg | 114% | 25 days | Range of death [21]: 42 days |
| Cc1c2ccnc(NCC(O)CO)c2cc2c3c[nH]ccc-3nc12 (stereo not given) | 4 µM⁻¹ | 250 nM | 40 mg/kg | 60 mg/kg | – | – | Range of death [22]: 17 days; MST [9]: 16 days |
| CCN(CC)CCCNc1nccc2c(C)c3[nH]c4ccncc4c3c(C)c12 | 143 µM⁻¹ | 7 nM | 10 mg/kg | 20 mg/kg | 46% | 16.8 days | Range of death [23]: 20 days |
| CCNCCCNc1nccc2c(C)c3[nH]c4ccc(OC)cc4c3c(C)c12 | 10 µM⁻¹ | 100 nM | 16 mg/kg | 20 mg/kg | 84% | 20 days | Range of death [24]: 28 days |
| CCN(CC)CCCNc1nccc2c(C)c3[nH]c4ccc(O)cc4c3cc12 | 50 µM⁻¹ | 20 nM | 2.5 mg/kg | 7 mg/kg | – | – | Range of death [25]: 19 days; MST [26]: 16.4 days |
| Cc1c2oc3c(C)ccc(C(=O)N[C@@H]4C(=O)N[C@H](C(C)C)C(=O)N5CCC[C@H]5C(=O)N(C)CC(=O)N(C)[C@@H](C(C)C)C(=O)O[C@@H]4C)c3nc-2c(C(=O)N[C@@H]2C(=O)N[C@H](C(C)C)C(=O)N3CCC[C@H]3C(=O)N(C)CC(=O)N(C)[C@@H](C(C)C)C(=O)O[C@@H]2C)c(N)c1=O [DACTINOMYCIN] (I: T[dV]P[Sar][NMeV] / II: T[dV]P[Sar][NMeV]; ester I:1-I:C, II:1-II:C; linker I:N-II:N via Actinocin(1to9)) | 1000 µM⁻¹ | 1 nM | – | – | – | – | – |
| CCNCCCNc1nccc2c(C)c3[nH]c4ccc(OC)cc4c3cc12 | 1.7 µM⁻¹ | 600 nM | 20 mg/kg | 30 mg/kg | 26% | 14.8 days | Range of death [27]: 25 days |
| CCN(CC)CCCNc1nccc2c(C)c3c(cc12)c1cc(O)ccc1n3C | 16 µM⁻¹ | 60 nM | 12.5 mg/kg | 25 mg/kg | – | – | Range of death [28]: 14 days; MST [29]: 13 days |
| CCN(CC)CC(O)CNc1nccc2c(C)c3[nH]c4ccncc4c3cc12 (stereo not given) | 20 µM⁻¹ | 50 nM | 25 mg/kg | 40 mg/kg | – | – | Range of death [30]: 27 days; MST [31]: 16.3 days |
| CCNCCCNc1nccc2c(C)c3c(c(C)c12)c1cc(O)ccc1n3C | 50 µM⁻¹ | 20 nM | 10 mg/kg | 25 mg/kg | – | – | MST [26]: 14.5 days; Range of death [32]: 19 days |
| CCN(CC)CCCNc1nccc2c(C)c3[nH]c4ccc(OC)cc4c3c(C)c12 [RETELLIPTINE] | 30 µM⁻¹ | 30 nM | 15 mg/kg | 60 mg/kg | – | – | MST [4]: 29.5 days; Range of death [33]: 35 days |
| CCN(CC)CCCNc1nccc2c(C)c3[nH]c4ccc(O)cc4c3c(C)c12 | 33 µM⁻¹ | 30 nM | 3 mg/kg | 10 mg/kg | – | – | Range of death [25]: 19 days; MST [26]: 16.5 days |
